Measurements as given in patent US12404295B2, “(Hetero)aryl-methyl-thio-beta-D-galactopyranoside derivatives” (Idorsia Pharmaceuticals Ltd, priority 2019, dated 2025).

Tests used:
human Gal-3 (hGal-3) = human Gal-3 (hGal-3) (Homo sapiens (Human), UniProt P17931); test: competitive binding assay: biotinylated hGal-3 binding to microplate-adsorbed asialofetuin (ASF); conditions: Table 5; read-out: IC50 (Gal-3 inhibition)
In short: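 Serially diluted compounds compete with biotinylated hGal-3 binding to adsorbed asialofetuin (3 hours, 4° C). After washing, streptavidin-peroxidase at 80 ng/mL for 1 hour at 4° C, with ABTS colour read-out. IC50 values are averaged over repeated runs.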

human Gal-1 (hGal-1) = human Gal-1 (hGal-1) (Homo sapiens (Human), UniProt P09382); test: competitive binding assay: biotinylated hGal-1 binding to microplate-adsorbed asialofetuin (ASF); conditions: Table 15; read-out: IC50 (Galectin-1 inhibition)
Sequence of human Gal-1 (hGal-1) (P09382 whole entry): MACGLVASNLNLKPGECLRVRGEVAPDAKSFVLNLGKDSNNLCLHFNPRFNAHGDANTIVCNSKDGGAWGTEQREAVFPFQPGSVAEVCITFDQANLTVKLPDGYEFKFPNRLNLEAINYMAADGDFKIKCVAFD
In short: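 Spectrophotometric competition readout: after compound and biotinylated hGal-1 (300-1000 ng/mL) sit 3 h at 4° C on adsorbed asialofetuin, streptavidin-peroxidase (1 h, 4° C) and ABTS reveal residual binding. Reported IC50 values are means of repeat runs.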

Sequence of human Gal-3 (hGal-3) (P17931 whole entry): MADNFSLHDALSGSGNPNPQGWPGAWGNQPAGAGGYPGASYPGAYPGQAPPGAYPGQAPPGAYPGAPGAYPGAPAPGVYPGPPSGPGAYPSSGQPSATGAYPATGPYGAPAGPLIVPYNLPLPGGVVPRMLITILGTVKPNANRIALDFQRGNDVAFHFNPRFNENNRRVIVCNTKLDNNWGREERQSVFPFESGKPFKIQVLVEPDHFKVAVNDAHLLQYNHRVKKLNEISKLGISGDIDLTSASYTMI

| IC50 (human Gal-3 (hGal-3)) [nM] | IC50 (human Gal-1 (hGal-1)) [nM] | Structure (SMILES) |
| --- | --- | --- |
| 90 | 1610 | Cc1ccccc1C(S[C@@H]1O[C@H](CO)[C@H](O)[C@H](n2cc(-c3cc(F)c(F)c(F)c3)nn2)[C@H]1O)C1(O)CCOCC1 (stereo partly drawn) [Example 2.41.102.] |
| 40 | 210 | Cc1ccccc1[C@@H](S[C@@H]1O[C@H](CO)[C@H](O)[C@H](n2cc(-c3cc(F)c(F)c(F)c3)nn2)[C@H]1O)C1(O)CCOCC1 [Example 2.41.102R.] |
| 7360 | 65400 | Cc1ccccc1[C@H](S[C@@H]1O[C@H](CO)[C@H](O)[C@H](n2cc(-c3cc(F)c(F)c(F)c3)nn2)[C@H]1O)C1(O)CCOCC1 [Example 2.41.102S.] |
| 110 | 900 | OC[C@H]1O[C@@H](SC(c2ccccc2C(F)(F)F)C2(O)CCOCC2)[C@H](O)[C@@H](n2cc(-c3cc(F)c(F)c(F)c3)nn2)[C@H]1O (stereo partly drawn) [Example 2.41.112., (2R,3R,4S,5R,6S)-2-(Hydroxymethyl)-6-(((4-hydroxytetrahydro-2H-pyran-4-yl)(2-(trifluoromethyl)phenyl)methyl)thio)-4-(4-(3,4,5-trifluorophenyl)-1H-1,2,3-triazol-1-yl)tetrahydro-2H-pyran-3,5-diol] |
| 80 | 900 | OC[C@H]1O[C@@H](S[C@H](c2ccccc2C(F)(F)F)C2(O)CCOCC2)[C@H](O)[C@@H](n2cc(-c3cc(F)c(F)c(F)c3)nn2)[C@H]1O [Example 2.41.112R., (2R,3R,4S,5R,6S)-2-(Hydroxymethyl)-6-(((R)-(4-hydroxytetrahydro-2H-pyran-4-yl)(2-(trifluoromethyl)phenyl)methyl)thio)-4-(4-(3,4,5-trifluorophenyl)-1H-1,2,3-triazol-1-yl)tetrahydro-2H-pyran-3,5-diol] |
| 6000 | 59400 | OC[C@H]1O[C@@H](S[C@@H](c2ccccc2C(F)(F)F)C2(O)CCOCC2)[C@H](O)[C@@H](n2cc(-c3cc(F)c(F)c(F)c3)nn2)[C@H]1O [Example 2.41.112S., (2R,3R,4S,5R,6S)-2-(Hydroxymethyl)-6-(((S)-(4-hydroxytetrahydro-2H-pyran-4-yl)(2-(trifluoromethyl)phenyl)methyl)thio)-4-(4-(3,4,5-trifluorophenyl)-1H-1,2,3-triazol-1-yl)tetrahydro-2H-pyran-3,5-diol] |
| 160 | 20000 | Cc1nc(C)c(C(S[C@@H]2O[C@H](CO)[C@H](O)[C@H](n3cc(-c4cc(F)c(F)c(F)c4)nn3)[C@H]2O)C2(O)CCOCC2)nc1C (stereo partly drawn) [Example 2.41.119., (2R,3R,4S,5R,6S)-2-(Hydroxymethyl)-6-(((4-hydroxytetrahydro-2H-pyran-4-yl)(3,5,6-trimethylpyrazin-2-yl)methyl)thio)-4-(4-(3,4,5-trifluorophenyl)-1H-1,2,3-triazol-1-yl)tetrahydro-2H-pyran-3,5-diol] |
| 60 | 490 | Cc1nc(C)c([C@@H](S[C@@H]2O[C@H](CO)[C@H](O)[C@H](n3cc(-c4cc(F)c(F)c(F)c4)nn3)[C@H]2O)C2(O)CCOCC2)nc1C [Example 2.41.119R., (2R,3R,4S,5R,6S)-2-(Hydroxymethyl)-6-(((R)-(4-hydroxytetrahydro-2H-pyran-4-yl)(3,5,6-trimethylpyrazin-2-yl)methyl)thio)-4-(4-(3,4,5-trifluorophenyl)-1H-1,2,3-triazol-1-yl)tetrahydro-2H-pyran-3,5-diol] |
| 2990 | 19900 | Cc1nc(C)c([C@H](S[C@@H]2O[C@H](CO)[C@H](O)[C@H](n3cc(-c4cc(F)c(F)c(F)c4)nn3)[C@H]2O)C2(O)CCOCC2)nc1C [Example 2.41.119S., (2R,3R,4S,5R,6S)-2-(Hydroxymethyl)-6-(((S)-(4-hydroxytetrahydro-2H-pyran-4-yl)(3,5,6-trimethylpyrazin-2-yl)methyl)thio)-4-(4-(3,4,5-trifluorophenyl)-1H-1,2,3-triazol-1-yl)tetrahydro-2H-pyran-3,5-diol] |
